Assay [1] deals with HT-29 cells (human colon cancer cells). In words: inhibition of HT29 cell proliferation (Cell Titer Glo 2.0). Conditions: 72 h. In kind it is cell-based. As to the method: Conjugates were assessed in an in vitro assay evaluating inhibition of cell proliferation. HT-29 cells (human colon cancer cells) were seeded in white walled 96-well plates at 10,000 cells per well in 100 μl McCoy's 5a (Invitrogen) media supplemented with 10% Fetal Bovine Serum (Invitrogen). After allowing cells to settle overnight, 5 μl of 20× test article was added to each well in replicate and incubated for 72 h. 72 hours after addition of compound, plates were removed from incubator and allowed to cool to room temperature. 50 μl of Cell Titer Glo 2.0 (Promega) was added to each well, incubated for 15 minutes, and plates were read on Glomax luminometer (Promega) using the Cell Titer Glo protocol. Raw luminometer readings for each plate were transformed by dividing the experimental well into the mean of untreated control wells. This is reported as ratio of untreated, and is plotted with Prism 6 software (Graph Pad) and fitted with a 4-parameter, variable slope curve.
Conjugates are assessed for receptor-dependent cytotoxicity by the difference between an NTSR1-targeting conjugate, and the corresponding conjugate with the same linker moiety and active agent where the NTSR1-targeting domain has been scrambled.
In general terms: ATP-based viability assays read luminescence as a measure of living cells.

Assay [2] relates to SW48 (human colon cancer cells). In words: inhibition of SW48 cell proliferation (CellTiter Glo). Type of assay: cell-based. The conditions noted are these: 72 hrs, read-out: SW-48 proliferation IC50. In short, it runs like this:
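Cells plated at 5,000/well and grown 24 hrs were exposed to conjugates for 72 hrs at 37° C, 5% CO2, in a ten-point three-fold series starting at 10 μM; vehicle was 0.01% DMSO. Proliferation was read by CellTiter Glo. % inhibition was taken relative to vehicle, with IC50 from four-parameter nonlinear regression.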

The target in assay [3] is T1, human NTSR1 (Homo sapiens, UniProt P30989).
T1 construct: host or cells: HEK-293 cells (membrane preparations)
In words: radioligand-receptor binding assay, [125I] labeled neurotensin (Eurofins Panlabs). Conditions: [125I] neurotensin 0.02 nM, membranes from NTSR1 expressing HEK-293 cells, 45 minute incubation, Cheng and Prusoff; read-out: NTSR1 binding Ki. In short, it runs like this:
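Membranes from HEK-293 cells expressing human NTSR1 incubated 45 min with 0.02 nM [125I]neurotensin and conjugate in 6-point 3-fold dilutions from 100 or 10 nM; bound radioactivity counted after filtration. IC50 by nonlinear regression, converted to Ki via Cheng–Prusoff using historical ligand Kd.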

Like-named read-outs stand apart in the source and are kept apart here. Numbered stars: 1 amine (or outer) side, 2 acyl side, 3 side chain; on linkers, the order of the positions; unused ones are H or OH. Bridge positions count the residues as written; N and C are the ends. Square brackets hold non-standard residues; d marks the D form. Peptide text beside a SMILES is read from it. I, II: the chains in the order shown. * marks the point of attachment. Propanoyl(3-SS-DM1) = COc1cc2cc(c1Cl)N(C)C(=O)C[C@H](OC(=O)[C@H](C)N(C)C(=O)CCSSCCC(=O)*)[C@]1(C)O[C@H]1[C@H](C)[C@@H]1C[C@@](O)(NC(=O)O1)[C@H](OC)/C=C/C=C(\C)C2; Hexanoyl(6-succinimido-3yl) = O=C1CC([*:1])C(=O)N1CCCCCC(=O)[*:2]; Dolaproine = CO[C@@H]([C@@H]1CCCN1)[C@@H](C)C(=O)O; Dil = CC[C@H](C)[C@H](NC)[C@@H](CC(=O)O)OC; PABC = O=C(OCc1ccc(N[*:1])cc1)[*:2]; NMeR = CN[C@@H](CCCNC(=N)N)C(=O)O; X1 = C[C@@H](N*)[C@@H](O)c1ccccc1; Cit = NC(=O)NCCC[C@H](N)C(=O)O; Pen = CC(C)(S)[C@H](N)C(=O)O; Tle = CC(C)(C)[C@H](N)C(=O)O; NMeV = CN[C@H](C(=O)O)C(C)C

T1 sequence (P30989 whole entry): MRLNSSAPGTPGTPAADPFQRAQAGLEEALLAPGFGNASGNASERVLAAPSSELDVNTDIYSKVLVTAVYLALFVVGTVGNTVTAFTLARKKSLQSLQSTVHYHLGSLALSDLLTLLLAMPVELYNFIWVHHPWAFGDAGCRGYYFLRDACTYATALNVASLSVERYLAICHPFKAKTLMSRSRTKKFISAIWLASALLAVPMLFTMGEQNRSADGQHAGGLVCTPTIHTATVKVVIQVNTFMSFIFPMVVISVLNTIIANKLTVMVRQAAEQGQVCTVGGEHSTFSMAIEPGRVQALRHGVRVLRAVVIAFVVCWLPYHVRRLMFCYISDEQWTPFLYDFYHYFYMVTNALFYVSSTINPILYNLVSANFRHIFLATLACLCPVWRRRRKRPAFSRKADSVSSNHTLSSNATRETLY

As to `COc1cc2cc(c1Cl)N(C)C(=O)C[C@H](OC(=O)[C@H](C)N(C)C(=O)CCSC1CC(=O)N(CCCCCC(=O)NCCCC[C@H](NC(C)=O)C(=O)N3CCC[C@H]3C(=O)N[C@@H](CC(C)C)C(=O)N3CCC[C@H]3C(=O)N(C)[C@@H](CCCNC(=N)N)C(=O)N[C@H](C(=O)N[C@@H](CCCNC(=N)N)C(=O)N[C@@H](Cc3ccc(O)cc3)C(=O)O)C(C)(C)C)C1=O)[C@]1(C)O[C@H]1[C@H](C)[C@@H]1C[C@@](O)(NC(=O)O1)[C@H](OC)/C=C/C=C(\C)C2` (stereo partly drawn) [Compound 80], the values for the IC50 in assay [1] (NTSR1 scrambled compound) and in assay [2] (NTSR1 scrambled compound) were 116 nM and 81 nM, respectively.
For `CC[C@H](C)[C@@H]([C@@H](CC(=O)N1CCC[C@H]1[C@H](OC)[C@@H](C)C(=O)N[C@H](C)[C@@H](O)c1ccccc1)OC)N(C)C(=O)[C@@H](NC(=O)[C@H](C(C)C)N(C)C(=O)OCc1ccc(NC(=O)[C@H](CCCNC(N)=O)NC(=O)[C@@H](NC(=O)CCCCCN2C(=O)CC(SC(C)(C)[C@H](NC(C)=O)C(=O)N3CCC[C@H]3C(=O)N[C@@H](CC(C)C)C(=O)N3CCC[C@H]3C(=O)N[C@@H](CCCNC(=N)N)C(=O)N[C@H](C(=O)N[C@@H](CCCNC(=N)N)C(=O)N[C@@H](Cc3ccc(O)cc3)C(=O)O)C(C)(C)C)C2=O)C(C)C)cc1)C(C)C` (stereo partly drawn) [Compound 90] the same measures were 97 nM and 60 nM.
On the same counts, the results for `COc1cc2cc(c1Cl)N(C)C(=O)C[C@H](OC(=O)[C@H](C)N(C)C(=O)CCSSCCC(=O)NCCCC[C@H](NC(C)=O)C(=O)N1CCC[C@H]1C(=O)N[C@@H](CC(C)C)C(=O)N1CCC[C@H]1C(=O)N(C)[C@@H](CCCNC(=N)N)C(=O)N[C@H](C(=O)N[C@@H](CCCNC(=N)N)C(=O)N[C@@H](Cc1ccc(O)cc1)C(=O)O)C(C)(C)C)[C@]1(C)O[C@H]1[C@H](C)[C@@H]1C[C@@](O)(NC(=O)O1)[C@H](OC)/C=C/C=C(\C)C2` [Compound 78] are 13.3 nM and 3 nM.
The Ki is the equilibrium dissociation constant of an inhibitor or competing ligand from its target. In the case of `CC[C@H](C)[C@@H]([C@@H](CC(=O)N1CCC[C@H]1[C@H](OC)[C@@H](C)C(=O)N[C@H](C)[C@@H](O)c1ccccc1)OC)N(C)C(=O)[C@@H](NC(=O)[C@H](C(C)C)N(C)C(=O)OCc1ccc(NC(=O)[C@H](CCCNC(N)=O)NC(=O)[C@@H](NC(=O)CCCCCN2C(=O)CC(SC(C)(C)[C@H](NC(C)=O)C(=O)N3CCC[C@H]3C(=O)N[C@@H](CCCNC(=N)N)C(=O)N[C@@H](CCCNC(=N)N)C(=O)N3CCC[C@H]3C(=O)N[C@@H](Cc3ccc(O)cc3)C(=O)N[C@H](C(=O)N[C@@H](CC(C)C)C(=O)O)C(C)(C)C)C2=O)C(C)C)cc1)C(C)C` (stereo partly drawn) [Compound 53] (I: Ac-[Pen]PRRPY[Tle]L-OH / II: V[Cit][PABC][NMeV]V[Dil][Dolaproine]-X1; linker I:1-II:N via Hexanoyl(6-succinimido-3yl)), in assay [3], the Ki stood at 3.15 nM. In addition, the values for the IC50 in assay [1] (NTSR1 targeted compound) and in assay [2] (NTSR1 targeted compound) were 16 nM and 17 nM, respectively.
Consider `COc1cc2cc(c1Cl)N(C)C(=O)C[C@H](OC(=O)[C@H](C)N(C)C(=O)CCSSCCC(=O)NCCCC[C@H](NC(C)=O)C(=O)N1CCC[C@H]1C(=O)N(C)[C@@H](CCCNC(=N)N)C(=O)N[C@@H](CCCNC(=N)N)C(=O)N1CCC[C@H]1C(=O)N[C@@H](Cc1ccc(O)cc1)C(=O)N[C@H](C(=O)N[C@@H](CC(C)C)C(=O)O)C(C)(C)C)[C@]1(C)O[C@H]1[C@H](C)[C@@H]1C[C@@](O)(NC(=O)O1)[C@H](OC)/C=C/C=C(\C)C2` [Compound 13] (Ac-K(Propanoyl(3-SS-DM1))P[NMeR]RPY[Tle]L-OH), for which, in assay [3], the Ki stood at 0.48 nM. For the same compound, the values for the IC50 in assay [1] (NTSR1 targeted compound) and in assay [2] (NTSR1 targeted compound) were 4.9 nM and 1.6 nM, respectively.
On the same counts, the results for `COc1cc2cc(c1Cl)N(C)C(=O)C[C@H](OC(=O)[C@H](C)N(C)C(=O)CCSC1CC(=O)N(CCCNC(=O)CNC(=O)[C@H](CC(C)C)NC(=O)[C@H](Cc3ccccc3)NC(=O)CNC(=O)CCC(=O)NCCCC[C@H](NC(C)=O)C(=O)N3CCC[C@H]3C(=O)N(C)[C@@H](CCCNC(=N)N)C(=O)N[C@@H](CCCNC(=N)N)C(=O)N3CCC[C@H]3C(=O)N[C@@H](Cc3ccc(O)cc3)C(=O)N[C@H](C(=O)N[C@@H](CC(C)C)C(=O)O)C(C)(C)C)C1=O)[C@]1(C)O[C@H]1[C@H](C)[C@@H]1C[C@@](O)(NC(=O)O1)[C@H](OC)/C=C/C=C(\C)C2` (stereo partly drawn) [Compound 14] are 0.78 nM, 17 nM and 2.2 nM.
`COc1cc2cc(c1Cl)N(C)C(=O)C[C@H](OC(=O)[C@H](C)N(C)C(=O)CCSC1CC(=O)N(CCCCCC(=O)NCCCC[C@H](NC(C)=O)C(=O)N3CCC[C@H]3C(=O)N(C)[C@@H](CCCNC(=N)N)C(=O)N[C@@H](CCCNC(=N)N)C(=O)N3CCC[C@H]3C(=O)N[C@@H](Cc3ccc(O)cc3)C(=O)N[C@H](C(=O)N[C@@H](CC(C)C)C(=O)O)C(C)(C)C)C1=O)[C@]1(C)O[C@H]1[C@H](C)[C@@H]1C[C@@](O)(NC(=O)O1)[C@H](OC)/C=C/C=C(\C)C2` (stereo partly drawn) [Compound 15]: the Ki in assay [3] was determined as 1.08 nM. For the same compound, the IC50 was 96 nM in assay [1] (NTSR1 targeted compound) and 70 nM in assay [2] (NTSR1 targeted compound).
As for `CC[C@H](C)[C@@H]([C@@H](CC(=O)N1CCC[C@H]1[C@H](OC)[C@@H](C)C(=O)N[C@H](C)[C@@H](O)c1ccccc1)OC)N(C)C(=O)[C@@H](NC(=O)[C@H](C(C)C)N(C)C(=O)OCCSSC(C)(C)[C@H](NC(C)=O)C(=O)N1CCC[C@H]1C(=O)N[C@@H](CC(C)C)C(=O)N1CCC[C@H]1C(=O)N[C@@H](CCCNC(=N)N)C(=O)N[C@H](C(=O)N[C@@H](CCCNC(=N)N)C(=O)N[C@@H](Cc1ccc(O)cc1)C(=O)O)C(C)(C)C)C(C)C` [Compound 92], the IC50 in assay [1] (NTSR1 scrambled compound) was found to be 2.2 nM; in assay [2] (NTSR1 scrambled compound) it was 18 nM.
For `COc1cc2cc(c1Cl)N(C)C(=O)C[C@H](OC(=O)[C@H](C)N(C)C(=O)CCSC1CC(=O)N(CCCNC(=O)CNC(=O)[C@H](CC(C)C)NC(=O)[C@H](Cc3ccccc3)NC(=O)CNC(=O)CCCCCN3C(=O)CC(SCCC(=O)NCCCC[C@H](NC(C)=O)C(=O)N4CCC[C@H]4C(=O)N[C@@H](CCCN)C(=O)N[C@@H](CCN)C(=O)N4CCC[C@H]4C(=O)N[C@@H](Cc4ccc(O)cc4)C(=O)N[C@H](C(=O)N[C@@H](CC(C)C)C(=O)O)C(C)(C)C)C3=O)C1=O)[C@]1(C)O[C@H]1[C@H](C)[C@@H]1C[C@@](O)(NC(=O)O1)[C@H](OC)/C=C/C=C(\C)C2` (stereo partly drawn) [Compound 36], the inhibitory constant (Ki) in assay [3] was 4.8 nM. The IC50 in assay [2] (NTSR1 targeted compound) was 50 nM.
On the same counts, the results for `COc1cc2cc(c1Cl)N(C)C(=O)C[C@H](OC(=O)[C@H](C)N(C)C(=O)CCSC1CC(=O)N(CCCNC(=O)CNC(=O)[C@H](CC(C)C)NC(=O)[C@H](Cc3ccccc3)NC(=O)CNC(=O)CCCCCN3C(=O)CC(SCCC(=O)NCCCC[C@H](NC(C)=O)C(=O)N4CCC[C@H]4C(=O)N[C@@H](CCCN)C(=O)N[C@@H](CCCNC(=N)N)C(=O)N4CCC[C@H]4C(=O)N[C@@H](Cc4ccc(O)cc4)C(=O)N[C@H](C(=O)N[C@@H](CC(C)C)C(=O)O)C(C)(C)C)C3=O)C1=O)[C@]1(C)O[C@H]1[C@H](C)[C@@H]1C[C@@](O)(NC(=O)O1)[C@H](OC)/C=C/C=C(\C)C2` (stereo partly drawn) [Compound 37] are 2.35 nM and 51.6 nM.

The values are drawn from patent publication US20200078468A1, “NEUROTENSIN RECEPTOR BINDING CONJUGATES AND FORMULATIONS THEREOF” (priority 2016, published 2020).
